Laboratory results published in patent publication US8980865B2, “Substituted nucleotide analogs” (priority 2011, dated 2015).

Target: NS5B570-Con1 (Delta-21) (Hepatitis C virus genotype 1b, UniProt Q9WMX2)
Assay: NS5B inhibition assay
Type: biochemical, HCV
Details: IC50, incorporation of tritiated NMP into acid-insoluble RNA, 2 hours at 37° C.
Experimental: The enzyme activity of NS5B570-Con1 (Delta-21) was measured as an incorporation of tritiated NMP into acid-insoluble RNA products. The complementary IRES (cIRES) RNA sequence was used as a template, corresponding to 377 nucleotides from the 3′-end of HCV (−) strand RNA of the Con-1 strain, with a base content of 21% Ade, 23% Ura, 28% Cyt, and 28% Gua. The cIRES RNA was transcribed in vitro using a T7 transcription kit (Ambion, Inc.) and purified using the Qiagen RNeasy maxi kit. HCV polymerase reactions contained 50 nM NS5B570-Con1, 50 nM cIRES RNA, about 0.5 μCi tritiated NTP, 1 μm of competing cold NTP, 20 mM NaCl, 40 mm Tris-HCl (pH 8.0), 4 mm dithiothreitol, and 4 mm MgCl2. Standard reactions were incubated for 2 hours at 37° C., in the presence of increasing concentration of inhibitor. At the end of the reaction, RNA was precipitated with 10% TCA, and acid-insoluble RNA products were filtered on a size exclusion 96-well plate. After washing of the plate, scintillation liquid was added and radio labeled RNA products were detected according to standard procedures with a Trilux Topcount scintillation counter. The compound concentration at which the enzyme-catalyzed rate was reduced by 50% (IC50) was calculated by fitting the data to a non-linear regression (sigmoidal). The IC50 values were derived from the mean of several independent experiments. […]

SMILES	IC50 [nM]
C#CC1(O)C(O)C(COP(O)(=S)OP(=O)(O)OP(=O)(O)O)OC1n1ccc(=O)[nH]c1=O (centres unmarked) [Compound 24a]	< 10000
C#CC1(O)C(O)C(COP(O)(=S)OP(=O)(O)OP(=O)(O)O)OC1n1ccc(=O)[nH]c1=O (centres unmarked) [Compound 23a]	< 1000

Tested on: HCV genotype 1b HCV replicon harbored in Huh7 cells
Assay: Combination testing in HCV replicon (CalcuSyn CI, MacSynergy II synergy volume)
Type: cell-based
Details: not given
Experimental: Two or more test compounds were tested in combination with each other using an HCV genotype 1b HCV replicon harbored in Huh7 cells with a stable luciferase (LUC) reporter. Cells were cultured under standard conditions in Dulbecco's modified Eagle's medium (DMEM; Mediatech Inc, Herndon, Va.) containing 10% heat-inactivated fetal bovine serum (FBS; Mediatech Inc, Herndon, Va.) 2 mM L-glutamine, and nonessential amino acids (JRH Biosciences). HCV replicon cells were plated in a 96-well plate at a density of 10^4 cells per well in DMEM with 10% FBS. On the following day, the culture medium was replaced with DMEM containing either no compound as a control, the test compounds serially diluted in the presence of 2% FBS and 0.5% DMSO, or a combination of compound 1a with one or more test compounds serially diluted in the presence of 2% FBS and 0.5% DMSO. The cells were incubated with no compound as a control, with the test compounds, or the combination of compounds for 72 hours. The direct effects of the combination of the test compounds were examined using a luciferase (LUC) based reporter as determined by the Bright-Glo Luciferase Assay (Promega, Madison, Wis.). Dose-response curves were determined for individual compounds and fixed ratio combinations of two or more test compounds.
The effects of test compound combinations were evaluated by two separate methods. In the Loewe additivity model, the experimental replicon data was analyzed by using CalcuSyn (Biosoft, Ferguson, Mo.), a computer program based on the method of Chou and Talalay. The program uses the experimental data to calculate a combination index (CI) value for each experimental combination tested. […]
The second method utilized for evaluating combination effects used a program called MacSynergy II. […] The volumes of synergy (positive volumes) or antagonism (negative volumes) represent the relative quantity of synergism or antagonism per change in the concentrations of the two drugs. […]

SMILES	Synergy Volume [μM^2%]
CC1CCC(C(=O)N(c2cc(C#CC(C)(C)C)sc2C(=O)O)C2CCC(O)CC2)CC1 (centres unmarked) [Compound 3003]	32
CCC[C@H](NC(=O)[C@@H]1[C@H]2CCC[C@H]2CN1C(=O)[C@@H](NC(=O)[C@@H](NC(=O)c1cnccn1)C1CCCCC1)C(C)(C)C)C(=O)C(=O)NC1CC1 [Compound 1001, Telaprevir]	104

Same assay, conditions: combination of compound 1a with the listed compound; 72 hours; MacSynergy II, Bliss independence; 25-100 synergistic, >100 strong synergistic

SMILES	Synergy Volume [μM^2%]
CC(C)OC(=O)C(C)NP(=S)(OC[C@H]1O[C@@H](n2ccc(=O)[nH]c2=O)[C@](C)(O)[C@@H]1O)Oc1ccccc1 (some centres unmarked) [Compound 6002]	29

Tested on: Huh-7 cells containing the self-replicating, subgenomic HCV replicon
Assay: HCV replicon assay (luciferase reporter)
Type: cell-based
Details: Hepatitis C virus, Huh-7, 72 h
Experimental: Huh-7 cells containing the self-replicating, subgenomic HCV replicon with a stable luciferase (LUC) reporter were cultured in Dulbecco's modified Eagle's medium (DMEM) containing 2 mM L-glutamine and supplemented with 10% heat-inactivated fetal bovine serum (FBS), 1% penicillin-streptomyocin, 1% nonessential amino acids, and 0.5 mg/mL G418.
Determination of 50% inhibitory concentration (EC50) of compounds in HCV replicon cells were performed by the following procedure. On the first day, 5,000 HCV replicon cells were plated per well in a 96-well plate. On the following day, test compounds were solubilized in 100% DMSO to 100× the desired final testing concentration. Each compound was then serially diluted (1:3) up to 9 different concentrations. Compounds in 100% DMSO are reduced to 10% DMSO by diluting 1:10 in cell culture media. The compounds were diluted to 10% DMSO with cell culture media, which were used to dose the HCV replicon cells in 96-well format. The final DMSO concentration was 1%. The HCV replicon cells were incubated at 37° C. for 72 hours. At 72 hours, cells were processed when the cells are still subconfluent. Compounds that reduce the LUC signal are determined by Bright-Glo Luciferase Assay (Promega, Madison, Wis.). % Inhibition was determined for each compound concentration in relation to the control cells (untreated HCV replicon) to calculate the EC50.
Compounds of Formula (I) are active in the replicon assay. The antiviral activity of exemplary compounds is shown in Table 3, where ‘A’ indicates an EC50<1 μM, ‘B’ indicates an EC50≧1 μM and <10 μM, and ‘C’ indicates an EC50≧10 μM and <100 μM.

SMILES	EC50 [nM]
C#C[C@@]1(O)[C@H](O)[C@@H](COP(=S)(N[C@@H](C)C(=O)OC(C)C)Oc2ccc(Cl)cc2)O[C@H]1n1ccc(=O)[nH]c1=O (some centres unmarked) [Compound 11a]	< 1000
C#C[C@@]1(O)[C@H](O)[C@@H](COP(=S)(N[C@@H](C)C(=O)OC(C)C)Oc2ccccc2)O[C@H]1n1cnc2c(N)ncnc21 (some centres unmarked) [Compound 4a]	< 1000
CCC#C[C@@]1(O)[C@H](O)[C@@H](COP(=S)(N[C@@H](C)C(=O)OC(C)C)Oc2ccccc2)O[C@H]1n1ccc(=O)[nH]c1=O (some centres unmarked) [Compound 18a]	10000 to 100000
CC#C[C@@]1(O)[C@H](O)[C@@H](COP(=S)(N[C@@H](C)C(=O)OC(C)C)Oc2ccccc2)O[C@H]1n1ccc(=O)[nH]c1=O (some centres unmarked) [Compound 14a]	1000 to 10000
C#C[C@@]1(O)[C@H](O)[C@@H](COP(=S)(N[C@@H](C)C(=O)OC(C)C)Oc2ccc(F)c(Cl)c2)O[C@H]1n1ccc(=O)[nH]c1=O (some centres unmarked) [Compound 12a]	< 1000
C#C[C@@]1(O)[C@H](O)[C@@H](COP(=S)(N[C@@H](C)C(=O)OC(C)C)Oc2cccc3ccccc23)O[C@H]1n1ccc(=O)[nH]c1=O (some centres unmarked) [Compound 13a]	< 1000
C#C[C@@]1(O)[C@H](O)[C@@H](COP(=S)(N[C@@H](C)C(=O)OC(C)C)Oc2ccc(F)cc2)O[C@H]1n1ccc(=O)[nH]c1=O (some centres unmarked) [Compound 10a]	< 1000
C#C[C@@]1(F)[C@H](O)[C@@H](COP(=S)(N[C@@H](C)C(=O)OC(C)C)Oc2ccccc2)O[C@H]1n1ccc(=O)[nH]c1=O (some centres unmarked) [Compound 16a]	1000 to 10000
C#C[C@@]1(O)[C@H](O)[C@@H](CO[P@](=S)(N[C@@H](C)C(=O)OC(C)C)Oc2ccccc2)O[C@H]1n1ccc(=O)[nH]c1=O [Compound 1ab]	< 1000
C#C[C@@]1(O)[C@H](O)[C@@H](COP(=S)(N[C@@H](CCC)C(=O)OC(C)C)Oc2ccccc2)O[C@H]1n1ccc(=O)[nH]c1=O (some centres unmarked) [Compound 19a]	< 1000
C#C[C@@]1(O)[C@H](O)[C@@H](CO[P@@](=S)(N[C@@H](C)C(=O)OC(C)C)Oc2ccccc2)O[C@H]1n1ccc(=O)[nH]c1=O [Compound 1aa]	< 1000
C#C[C@@]1(O)[C@H](O)[C@@H](COP(=S)(N[C@@H](C)C(=O)OC(C)C)Oc2ccccc2)O[C@H]1n1ccc(=O)[nH]c1=O (some centres unmarked) [Compound 1a]	< 1000
C#C[C@@]1(O)[C@H](O)[C@@H](COP(=S)(N[C@H](C(=O)OC(C)C)C(C)C)Oc2ccccc2)O[C@H]1n1ccc(=O)[nH]c1=O (some centres unmarked) [Compound 8a]	10000 to 100000
C#C[C@@]1(O)[C@H](O)[C@@H](COP(=S)(N[C@@H](CC)C(=O)OC(C)C)Oc2ccccc2)O[C@H]1n1ccc(=O)[nH]c1=O (some centres unmarked) [Compound 21a]	< 1000
C=C[C@@]1(O)[C@H](O)[C@@H](COP(=S)(N[C@@H](C)C(=O)OC(C)C)Oc2ccccc2)O[C@H]1n1ccc(=O)[nH]c1=O (some centres unmarked) [Compound 2a]	1000 to 10000
CC(C)C#C[C@@]1(O)[C@H](O)[C@@H](COP(=S)(N[C@@H](C)C(=O)OC(C)C)Oc2ccccc2)O[C@H]1n1ccc(=O)[nH]c1=O (some centres unmarked) [Compound 20a]	10000 to 100000
C#C[C@@]1(O)[C@H](O)[C@@H](COP(=S)(N[C@@H](CCSC)C(=O)OC(C)C)Oc2ccccc2)O[C@H]1n1ccc(=O)[nH]c1=O (some centres unmarked) [Compound 7a]	< 1000
C#C[C@@]1(O)[C@H](O)[C@@H](COP(=S)(N[C@@H](CC(C)C)C(=O)OC(C)C)Oc2ccccc2)O[C@H]1n1ccc(=O)[nH]c1=O (some centres unmarked) [Compound 9a]	1000 to 10000
CC(C)OC(=O)[C@H](C)NP(=S)(OC[C@H]1O[C@@H](n2ccc(=O)[nH]c2=O)[C@@](O)(C#CI)[C@@H]1O)Oc1ccccc1 (some centres unmarked) [Compound 15a]	< 1000
C#C[C@@]1(O)[C@H](O)[C@@H](COP(=S)(N[C@@H](C)C(=O)OC2CCCCC2)Oc2ccccc2)O[C@H]1n1cnc2c(=O)[nH]c(N)nc21 (some centres unmarked) [Compound 17a]	1000 to 10000
C#C[C@@]1(O)[C@H](O)[C@@H](COP(=S)(N[C@@H](C)C(=O)OC(C)C)Oc2ccccc2)O[C@H]1n1cnc2c(=O)[nH]c(N)nc21 (some centres unmarked) [Compound 6a]	1000 to 10000
